Test results from patent US20230391768A2, “IMIDAZOPYRIDINE DERIVATIVES AND AZA-IMIDAZOPYRIDINE DERIVATIVES AS JANUS KINASE 2 INHIBITORS AND USES THEREOF” (Dana-Farber Cancer Institute, Inc., priority 2018, published 2023).

Experiments:
JAK2 = JAK2 (Homo sapiens (Human), UniProt O60674); test: JAK2 Z-Lyte biochemical assay; details: commercial JAK2 Z-Lyte assay from Invitrogen
Experimental: The JAK2 Z-Lyte biochemical assay was performed according to manufacturer's instructions (Life Technologies).

ERBB3 = ERBB3 (Homo sapiens (Human), UniProt P21860); test: KINOMEscan; assay type: binding; details: read-out: percent of control
Experimental: (§1) In vitro profiling of Compound I-2 (1 μM) was performed using the DiscoveRx KINOMEscan® platform.

RIOK3 = RIOK3 (Homo sapiens (Human), UniProt O14730); test: KINOMEscan; assay type: binding; details: read-out: percent of control
Experimental: as §1

HCK = HCK (Homo sapiens (Human), UniProt P08631); test: KINOMEscan; assay type: binding; details: read-out: percent of control
Experimental: as §1

ADCK3 = ADCK3 (Homo sapiens (Human), UniProt Q8NI60); test: KINOMEscan; assay type: binding; details: read-out: percent of control
Experimental: as §1

TYK2(JH2domainpseudokia) = target: TYK2(JH2domainpseudokia (Homo sapiens (Human), UniProt P29597)); test: KINOMEscan; assay type: binding; details: read-out: percent of control
Experimental: as §1

STK33 = STK33 (Homo sapiens (Human), UniProt Q9BYT3); test: KINOMEscan; assay type: binding; details: read-out: percent of control
Experimental: as §1

AXL = AXL (Homo sapiens (Human), UniProt P30530); test: KINOMEscan; assay type: binding; details: read-out: percent of control
Experimental: as §1

AXL, sequence (P30530 26-894): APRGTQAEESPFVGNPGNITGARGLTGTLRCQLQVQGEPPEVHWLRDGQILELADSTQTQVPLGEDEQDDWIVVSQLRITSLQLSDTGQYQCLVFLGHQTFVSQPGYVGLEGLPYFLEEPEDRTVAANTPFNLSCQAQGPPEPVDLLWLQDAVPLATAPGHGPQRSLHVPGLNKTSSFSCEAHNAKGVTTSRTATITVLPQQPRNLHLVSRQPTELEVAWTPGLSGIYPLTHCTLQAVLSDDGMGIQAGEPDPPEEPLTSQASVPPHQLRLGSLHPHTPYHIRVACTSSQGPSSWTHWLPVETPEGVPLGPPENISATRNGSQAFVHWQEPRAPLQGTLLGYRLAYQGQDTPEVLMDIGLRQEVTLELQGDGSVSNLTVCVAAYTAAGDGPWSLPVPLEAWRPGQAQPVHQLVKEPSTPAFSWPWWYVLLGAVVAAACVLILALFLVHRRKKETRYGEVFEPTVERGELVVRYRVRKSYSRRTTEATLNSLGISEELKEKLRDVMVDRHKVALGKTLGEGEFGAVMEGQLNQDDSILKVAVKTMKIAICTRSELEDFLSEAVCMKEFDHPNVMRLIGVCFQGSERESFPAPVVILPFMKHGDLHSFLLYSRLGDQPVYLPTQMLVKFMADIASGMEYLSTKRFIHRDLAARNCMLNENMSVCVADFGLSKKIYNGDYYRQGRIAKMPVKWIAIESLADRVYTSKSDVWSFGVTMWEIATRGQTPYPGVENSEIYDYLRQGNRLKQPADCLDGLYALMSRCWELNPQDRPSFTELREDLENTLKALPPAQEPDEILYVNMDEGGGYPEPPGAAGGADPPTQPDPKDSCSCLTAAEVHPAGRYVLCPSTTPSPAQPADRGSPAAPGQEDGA
ADCK3, sequence (Q8NI60 163-647): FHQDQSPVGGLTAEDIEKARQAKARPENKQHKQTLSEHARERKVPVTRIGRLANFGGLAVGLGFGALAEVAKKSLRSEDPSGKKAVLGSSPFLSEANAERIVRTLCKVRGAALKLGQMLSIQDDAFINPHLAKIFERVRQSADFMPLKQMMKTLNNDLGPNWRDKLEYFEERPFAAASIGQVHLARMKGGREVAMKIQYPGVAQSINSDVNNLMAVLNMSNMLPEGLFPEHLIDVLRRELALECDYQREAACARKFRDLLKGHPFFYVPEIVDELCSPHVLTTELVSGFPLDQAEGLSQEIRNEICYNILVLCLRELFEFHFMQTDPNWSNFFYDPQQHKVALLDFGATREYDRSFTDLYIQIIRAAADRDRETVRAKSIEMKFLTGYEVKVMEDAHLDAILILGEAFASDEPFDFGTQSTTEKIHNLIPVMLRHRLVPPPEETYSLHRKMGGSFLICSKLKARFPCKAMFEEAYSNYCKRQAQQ
ERBB3, sequence (P21860 20-1342): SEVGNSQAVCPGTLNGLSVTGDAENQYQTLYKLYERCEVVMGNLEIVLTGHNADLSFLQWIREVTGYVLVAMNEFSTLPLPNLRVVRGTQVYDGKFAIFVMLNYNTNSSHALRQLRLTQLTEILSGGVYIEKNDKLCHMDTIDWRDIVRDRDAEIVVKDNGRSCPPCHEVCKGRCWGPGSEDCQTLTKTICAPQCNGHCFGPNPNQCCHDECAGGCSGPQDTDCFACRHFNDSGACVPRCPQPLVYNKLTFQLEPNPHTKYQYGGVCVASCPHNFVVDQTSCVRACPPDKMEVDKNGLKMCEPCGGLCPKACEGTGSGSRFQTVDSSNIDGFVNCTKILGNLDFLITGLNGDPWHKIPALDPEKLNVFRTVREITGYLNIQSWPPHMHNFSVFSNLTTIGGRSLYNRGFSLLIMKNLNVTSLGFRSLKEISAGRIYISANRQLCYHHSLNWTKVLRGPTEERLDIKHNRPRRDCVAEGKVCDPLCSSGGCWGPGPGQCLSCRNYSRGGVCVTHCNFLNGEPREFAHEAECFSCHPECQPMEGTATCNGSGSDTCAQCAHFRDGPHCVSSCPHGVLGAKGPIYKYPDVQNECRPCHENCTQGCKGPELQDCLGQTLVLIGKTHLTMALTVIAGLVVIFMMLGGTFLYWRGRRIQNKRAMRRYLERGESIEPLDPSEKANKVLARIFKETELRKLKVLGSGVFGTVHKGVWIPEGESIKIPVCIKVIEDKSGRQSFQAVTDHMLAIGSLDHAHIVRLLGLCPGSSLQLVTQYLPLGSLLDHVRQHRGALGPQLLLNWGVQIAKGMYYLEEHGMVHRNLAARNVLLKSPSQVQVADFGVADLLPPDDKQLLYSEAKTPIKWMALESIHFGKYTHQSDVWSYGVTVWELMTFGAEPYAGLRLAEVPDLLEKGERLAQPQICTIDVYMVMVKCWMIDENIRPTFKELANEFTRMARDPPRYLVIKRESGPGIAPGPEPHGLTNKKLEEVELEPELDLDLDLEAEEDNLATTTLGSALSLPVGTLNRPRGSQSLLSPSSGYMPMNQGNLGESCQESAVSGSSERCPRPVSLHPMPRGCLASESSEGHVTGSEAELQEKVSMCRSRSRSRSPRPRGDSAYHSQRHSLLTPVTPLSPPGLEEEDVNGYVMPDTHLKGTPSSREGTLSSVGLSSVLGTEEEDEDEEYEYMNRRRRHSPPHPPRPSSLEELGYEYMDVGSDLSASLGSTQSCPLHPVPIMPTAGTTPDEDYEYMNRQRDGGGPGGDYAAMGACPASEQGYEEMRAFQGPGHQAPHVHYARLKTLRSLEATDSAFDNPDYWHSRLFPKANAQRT
STK33, sequence (Q9BYT3 whole entry): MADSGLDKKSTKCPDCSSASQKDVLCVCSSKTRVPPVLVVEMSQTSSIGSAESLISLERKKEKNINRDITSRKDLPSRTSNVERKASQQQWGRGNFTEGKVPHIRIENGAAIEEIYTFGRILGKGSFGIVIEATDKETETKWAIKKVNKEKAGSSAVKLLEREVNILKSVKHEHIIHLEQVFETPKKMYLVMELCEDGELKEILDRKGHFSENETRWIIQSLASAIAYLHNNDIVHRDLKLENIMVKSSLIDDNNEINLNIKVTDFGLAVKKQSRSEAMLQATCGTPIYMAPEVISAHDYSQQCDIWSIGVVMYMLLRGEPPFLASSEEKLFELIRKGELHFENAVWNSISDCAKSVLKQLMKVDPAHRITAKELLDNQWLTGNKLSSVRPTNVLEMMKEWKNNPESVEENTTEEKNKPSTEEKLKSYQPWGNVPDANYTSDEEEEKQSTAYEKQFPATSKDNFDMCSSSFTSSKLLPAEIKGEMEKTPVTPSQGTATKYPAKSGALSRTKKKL
HCK, sequence (P08631 whole entry): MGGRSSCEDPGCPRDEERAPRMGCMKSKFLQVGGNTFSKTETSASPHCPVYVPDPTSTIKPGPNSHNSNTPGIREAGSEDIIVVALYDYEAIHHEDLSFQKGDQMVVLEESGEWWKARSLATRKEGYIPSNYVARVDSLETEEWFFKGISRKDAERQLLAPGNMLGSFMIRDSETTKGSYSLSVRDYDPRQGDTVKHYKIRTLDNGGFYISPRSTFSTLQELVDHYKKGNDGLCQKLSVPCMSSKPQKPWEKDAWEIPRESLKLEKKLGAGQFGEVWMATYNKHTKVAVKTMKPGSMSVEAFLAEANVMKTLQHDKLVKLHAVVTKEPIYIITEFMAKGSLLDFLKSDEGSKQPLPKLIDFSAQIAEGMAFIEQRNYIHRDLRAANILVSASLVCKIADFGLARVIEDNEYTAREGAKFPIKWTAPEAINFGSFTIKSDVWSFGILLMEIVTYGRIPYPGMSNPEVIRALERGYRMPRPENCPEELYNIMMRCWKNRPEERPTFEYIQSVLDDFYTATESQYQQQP
RIOK3, sequence (O14730 whole entry): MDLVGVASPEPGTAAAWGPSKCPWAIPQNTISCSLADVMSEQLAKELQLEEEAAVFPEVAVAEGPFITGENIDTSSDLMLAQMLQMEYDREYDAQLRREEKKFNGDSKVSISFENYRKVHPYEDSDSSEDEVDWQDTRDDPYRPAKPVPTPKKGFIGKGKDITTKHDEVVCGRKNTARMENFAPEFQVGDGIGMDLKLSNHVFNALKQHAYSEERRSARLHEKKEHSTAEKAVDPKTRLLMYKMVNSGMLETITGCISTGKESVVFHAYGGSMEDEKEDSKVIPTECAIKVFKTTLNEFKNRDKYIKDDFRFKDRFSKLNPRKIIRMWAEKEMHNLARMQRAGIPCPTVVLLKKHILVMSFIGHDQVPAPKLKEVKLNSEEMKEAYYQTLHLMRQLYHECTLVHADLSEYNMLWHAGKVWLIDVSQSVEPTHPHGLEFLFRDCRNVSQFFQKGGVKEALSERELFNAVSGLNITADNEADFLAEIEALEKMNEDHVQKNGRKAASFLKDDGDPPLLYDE
TYK2(JH2domainpseudokia, sequence (P29597 589-875): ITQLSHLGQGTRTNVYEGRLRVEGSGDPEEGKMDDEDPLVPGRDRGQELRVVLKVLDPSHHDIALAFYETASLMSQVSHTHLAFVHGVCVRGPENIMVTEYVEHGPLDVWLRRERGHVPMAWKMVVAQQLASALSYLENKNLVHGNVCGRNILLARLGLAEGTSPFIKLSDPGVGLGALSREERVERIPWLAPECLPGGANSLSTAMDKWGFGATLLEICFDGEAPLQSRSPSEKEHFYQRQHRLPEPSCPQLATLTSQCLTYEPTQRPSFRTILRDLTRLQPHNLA

| SMILES | IC50 (JAK2) | remaining binding at 1 µM (ERBB3) | remaining binding at 1 µM (RIOK3) | remaining binding at 1 µM (HCK) | remaining binding at 1 µM (ADCK3) | remaining binding at 1 µM (TYK2(JH2domainpseudokia)) | remaining binding at 1 µM (STK33) | remaining binding at 1 µM (AXL) |
| --- | --- | --- | --- | --- | --- | --- | --- | --- |
| CCN1CCN(Cc2cc(NC(=O)c3ccc(C)c(-c4ccc5nc(NC(=O)C6CC6)cn5c4)c3)cc(C(F)(F)F)c2)CC1 [Compound I-6, 3-(2-(cyclopropanecarboxamido)imidazo[1,2-a]pyridin-6-yl)-N-(3-((4-ethylpiperazin-1-yl)methyl)-5-(trifluoromethyl)phenyl)-4-methylbenzamide] | 0.284 µM | 93% | 90% | 0.05% | 96% | 95% | 100% | 3.9% |
| CCN1CCN(Cc2cc(NC(=O)c3ccc(C)c(-c4ccc5nc(NC(=O)C6CC6)cn5n4)c3)cc(C(F)(F)F)c2)CC1 [Compound I-2, 3-(2-(cyclopropanecarboxamido)imidazo[1,2-b]pyridazin-6-yl)-N-(3-((4-ethylpiperazin-1-yl)methyl)-5-(trifluoromethyl)phenyl)-4-methylbenzamide] | 0.19 µM | 100% | 100% | 0% | 97% | 80% | 70% | 2.1% |
